Patent US20050080020A1, “Hydroxylated indirubin derivatives” (priority 2002, published 2005)
Where two headings read alike, the source gives them in different places.

Legend:
[1] = system: cytochrom P450 dependent liver monooxygenases
[2] = system: human solid tumors implanted into nude mice; settings: cited from earlier work
log P (octanol/water) = assay type: physicochemical
[3] = solubility in physiological saline (pH 7.4); assay type: physicochemical
tumor cells = test: inhibition of growth of tumor cells; assay type: cell-based; settings: relative to parent compounds
[4] = nude mice, comparable dosage, cf. PCT/EP00/03210

Row | Compound | log P (octanol/water) (log P (octanol/water)) | solubility in physiological saline [3] | inhibiting growth of tumor cells, compared with the parent compounds (tumor cells) | further results
1 | O=C1Nc2ccccc2/C1=C1/Nc2ccccc2C1=O [indirubin] |  |  |  | metabolism (oxidative, liver microsomes) [1]: not metabolized to a detectable extent; toxicity (body weight loss) ([2]; mouse, in vivo): remarkably toxic
2 | Cc1cc2c(cc1O)NC(=O)C2=C1Nc2ccccc2C1=O [6-hydroxy-5-methylindirubin] | 1.6 | up to 240 mg/l | at least as effective | increase of solubility versus parent compound 5-methylindirubin (factor) [3]: more than 2000
3 | Cc1ccc2c(c1)/C(=C1/Nc3ccccc3C1=O)C(=O)N2 [5-methylindirubin] | 1.1 | 0.1 mg/l |  | metabolism (oxidative, liver microsomes) ([1]; liver microsome preparations from cows, pigs, rats and human liver samples): rapidly metabolized; effectiveness on human solid tumors implanted into nude mice [2, 4]: highly effective; toxicity (body weight loss) [2, 4]: without any perceptible toxicity
4 | Cc1cc2c(cc1O)NC(=O)C2=C1Nc2c(O)cccc2C1=O [6,7′-dihydroxy-5-methylindirubin] |  |  | at least as effective | 
